Reference: patent publication US8426420B2, “Heterocyclic pyrazole-carboxamidesas P2Y12 antagonists” (Sanofi, priority 2007, dated 2013)

Key:
[1] = test system: human platelet rich plasma; test: Inhibition of human platelet aggregation, "Born"-method using single cuvettes; assay type: cell-based; settings: 0.1 h, ADP-induced aggregation, 6 minutes
Description: Inhibition of Human Platelet Aggregation
Alternatively to a binding assay which measures a compound's ability to bind to the P2Y12 receptor, the effect on cellular function was also determined. This ability of the compound was evaluated in two platelet aggregation assays: in 96-well plates and with the “Born”-method using single cuvettes.
Whole blood was collected from healthy volunteers using 20 ml syringes containing 2 ml of buffered Citrate. The anticoagulated whole blood was transferred into 15 ml polypropylene conical tubes (10 ml per tube). The tubes were centrifuged for 15 minutes at 340×g at RT without using the centrifuge brake. This procedure leads to a pellet of cellular components and a supernatant of platelet rich plasma (PRP). The PRP layer was collected from each tube and pooled for each donor. To avoid carry over of cellular components following centrifugation, approximately 5 ml of PRP was left in the tube. The platelet concentration was determined using a Coulter Counter.
The 15 ml tubes containing the pellet of cellular components were centrifuged again for 10 minutes at 1940×g. This pelleted out most particulate blood constituents remaining, leaving a layer of Platelet Poor Plasma (PPP). The PPP was collected for each donor. The PRP layer, previously set aside, was diluted with PPP to a final concentration of approximately 3×E8 platelets/ml with the PPP.
The human platelet aggregation assay is performed in single use cuvettes using the platelet aggregation profiler (PAP-4 or -8, Bio/Data corporation).
In the assay cuvette 4 μl of test compound at 100× final concentration in DMSO is mixed with 392 μl fresh PRP and incubated for 2 minutes at 37° C. with 1.200 rpm stirring. Following that incubation period, 4 μl of 250 μM ADP is added to the reaction mix. This addition of ADP is sufficient to induce aggregation in the absence of an inhibitor. After that aggregation is measured over 6 minutes at 37° C. with 1.200 rpm stirring. Results of the assay are expressed as % inhibition, and are calculated using maximum aggregation (Tmax) or area under curve (AUC) of the absorbance over 6 minutes.
The IC50 data of the above described platelet aggregation assay using human platelet rich plasma for exemplary compounds of the present invention are shown in table 3.

[2] = test system: human platelet rich plasma; test: Inhibition of human platelet aggregation, 96-well assay; assay type: cell-based; settings: Homo sapiens, Platelet, 20 min
Summary of the method: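 ADP-induced aggregation read as 650 nm absorbance every minute for 20 min at 37 °C, with shaking between reads. PRP (~3×E8 platelets/ml, diluted with PPP, ACD-A blood from healthy volunteers) was exposed to compound for 5 min before adding a 40 μM ADP stock (15 μl into 150 μl).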

human P2Y12 receptor = human P2Y12 receptor (Homo sapiens, UniProt Q9H244); test: Human P2Y12 recombinant cell membrane binding assay with 33P 2MeS-ADP; settings: competition against 33P 2MeS-ADP, membranes of CHO cells with recombinant human P2Y12 receptor
Summary of the method: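 CHO membranes expressing human P2Y12 (20 μg/ml stock) preincubated 15 min at RT with compound in HEPES pH 7.4 buffer, then 33P 2MeS-ADP (1.61 nM working solution) added for 20 min at RT. Bound label filtered and counted; four-point, five-fold series from 10 μM final, triplicate, four-parameter fit.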

Sequence of human P2Y12 receptor (Q9H244 whole entry): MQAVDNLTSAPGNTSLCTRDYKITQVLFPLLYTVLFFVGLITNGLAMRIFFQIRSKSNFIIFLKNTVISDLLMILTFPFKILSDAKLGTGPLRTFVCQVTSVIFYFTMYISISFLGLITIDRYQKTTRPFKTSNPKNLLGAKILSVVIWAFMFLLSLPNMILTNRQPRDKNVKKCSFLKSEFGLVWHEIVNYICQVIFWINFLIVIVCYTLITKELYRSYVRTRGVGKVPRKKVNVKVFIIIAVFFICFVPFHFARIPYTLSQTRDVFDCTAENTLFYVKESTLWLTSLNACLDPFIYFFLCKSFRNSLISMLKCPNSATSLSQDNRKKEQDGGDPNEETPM

| SMILES | IC50 [1] | IC50 [2] | IC50 (human P2Y12 receptor) |
| --- | --- | --- | --- |
| CCOC(=O)N1CCN(C(=O)[C@H](CCC(=O)O)NC(=O)c2cc(OCC(=O)N3CCC[C@H]3c3cc(C)no3)n(-c3ccccc3)n2)CC1 [Example 173, 4-{(S)-4-Carboxy-2-[(5-{2-[(S)-2-(3-methyl-isoxazol-5-yl)-pyrrolidin-1-yl]-2-oxo-ethoxy}-1-phenyl-1H-pyrazole-3-carbonyl)-amino]-butyryl}-piperazine-1-carboxylic acid ethyl ester] | 940 nM | 860 nM |  |
| CCOC(=O)N1CCN(C(=O)[C@H](CCC(=O)O)NC(=O)c2cc(O[C@@H](C)C(=O)N3CCC[C@H]3C(=O)NC3CCC3)n(-c3ccccc3)n2)CC1 [Example 67, 4-[(S)-4-Carboxy-2-({5-[(S)-2-((S)-2-cyclobutylcarbamoyl-pyrrolidin-1-yl)-1-methyl-2-oxo-ethoxy]-1-phenyl-1H-pyrazole-3-carbonyl}-amino)-butyryl]-piperazine-1-carboxylic acid ethyl ester] | 950 nM | 110 nM |  |
| CCOC(=O)N1CCN(C(=O)[C@H](CCC(=O)O)NC(=O)c2cc(O[C@H](C)C(=O)N3CCC[C@H]3C(=O)NCC3CC3)n(-c3ccccc3)n2)CC1 [Example 63, 4-[(S)-4-Carboxy-2-({5-[(R)-2-((S)-2-cyclopropylmethylcarbamoyl-pyrrolidin-1-yl)-1-methyl-2-oxo-ethoxy]-1-phenyl-1H-pyrazole-3-carbonyl}-amino)-butyryl]-piperazine-1-carboxylic acid ethyl ester] | 20 nM |  | 41 nM |
| CCCCOC(=O)N1CCN(C(=O)[C@H](CCC(=O)O)NC(=O)c2cc(OCC(=O)N3CCC[C@H]3C(=O)NC3CCC3)n(-c3ccccc3)n2)CC1 [Example 119, 4-[(S)-4-Carboxy-2-({5-[2-((S)-2-cyclobutylcarbamoyl-pyrrolidin-1-yl)-2-oxo-ethoxy]-1-phenyl-1H-pyrazole-3-carbonyl}-amino)-butyryl]-piperazine-1-carboxylic acid butyl ester] | 13 nM | 20 nM |  |
| CCCCOC(=O)N1CCN(C(=O)[C@H](CF)NC(=O)c2cc(OCC(=O)N3CCC[C@H]3C(=O)NC3CCC3)n(-c3ccccc3)n2)CC1 [Example 262, 4-[(R)-2-({5-[2-((S)-2-Cyclobutylcarbamoyl-pyrrolidin-1-yl)-2-oxo-ethoxy]-1-phenyl-1H-pyrazole-3-carbonyl}-amino)-3-fluoro-propionyl]-piperazine-1-carboxylic acid butyl ester] | 40 nM | 30 nM |  |
| CCOC(=O)N1CCN(C(=O)CNC(=O)c2cc(OCC(=O)N3CCC[C@H]3C(=O)NC3CCC3)n(-c3ccccc3)n2)CC1 [Example 181, 4-[2-({5-[2-((S)-2-Cyclobutylcarbamoyl-pyrrolidin-1-yl)-2-oxo-ethoxy]-1-phenyl-1H-pyrazole-3-carbonyl}-amino)-acetyl]-piperazine-1-carboxylic acid ethyl ester] | 100 nM | 90 nM |  |
| CCOC(=O)N1CCN(C(=O)[C@H](CCC(=O)O)NC(=O)c2cc(OCC(=O)N3CCC[C@H]3C(=O)NCC(F)(F)F)n(-c3ccccc3)n2)CC1 [Example 2, 4-{(S)-4-Carboxy-2-[(5-{2-oxo-2-[(S)-2-(2,2,2-trifluoroethyl-carbamoyl)pyrrolidin-1-yl]-ethoxy}-1-phenyl-1H-pyrazole-3-carbonyl)-amino]-butyryl}-piperazine-1-carboxylic acid ethyl ester] | 11 nM |  | 120 nM |
| CCCCOC(=O)N1CCN(C(=O)[C@H](CCc2nn[nH]n2)NC(=O)c2cc(OCC(=O)N3CCC[C@H]3C(=O)NC3CCC3)n(-c3ccccc3)n2)CC1 [Example 126, 4-[(S)-2-({5-[2-((S)-2-Cyclobutylcarbamoyl-pyrrolidin-1-yl)-2-oxo-ethoxy]-1-phenyl-1H-pyrazole-3-carbonyl}-amino)-4-(2H-tetrazol-5-yl)-butyryl]-piperazine-1-carboxylic acid butyl ester] | 79 nM | 50 nM |  |
| CCOC(=O)N1CCN(C(=O)[C@H](CCC(=O)O)NC(=O)c2cc(OCC(=O)N3CCC[C@H]3C(=O)NC3CCCC3)n(-c3ccccc3)n2)CC1 [Example 13, 4-{(S)-4-Carboxy-2-[(5-{2-[(S)-2-cyclopentylcarbamoyl-pyrrolidin-1-yl]-2-oxo-ethoxy}-1-phenyl-1H-pyrazole-3-carbonyl)-amino]-butyryl}-piperazine-1-carboxylic acid ethyl ester] | 38 nM | 10 nM |  |
| O=C(NCC(=O)N1CCN(C(=O)OCCC(F)(F)F)CC1)c1cc(OCC(=O)N2CCC[C@H]2C(=O)NC2CCC2)n(-c2ccccc2)n1 [Example 256, 4-[2-({5-[2-((S)-2-Cyclobutylcarbamoyl-pyrrolidin-1-yl)-2-oxo-ethoxy]-1-phenyl-1H-pyrazole-3-carbonyl}-amino)-acetyl]-piperazine-1-carboxylic acid 3,3,3-trifluoro-propyl ester] | 190 nM | 130 nM |  |
| CCCCOC(=O)N1CCN(C(=O)[C@H](CCC(=O)O)NC(=O)c2cc(OCC(=O)N3CCC[C@H]3C(=O)N(C)C3CCC3)n(-c3ccccc3)n2)CC1 [Example 124, 4-{(S)-4-Carboxy-2-[(5-{2-[(S)-2-(cyclobutyl-methyl-carbamoyl)-pyrrolidin-1-yl]-2-oxo-ethoxy}-1-phenyl-1H-pyrazole-3-carbonyl)-amino]-butyryl}-piperazine-1-carboxylic acid butyl ester] | 20 nM |  | 71 nM |
| CCCCOC(=O)N1CCN(C(=O)[C@H](CCCO)NC(=O)c2cc(OCC(=O)N3CCC[C@H]3C(=O)NC3CCC3)n(-c3ccccc3)n2)CC1 [Example 178, 4-[(S)-2-({5-[2-((S)-2-Cyclobutylcarbamoyl-pyrrolidin-1-yl)-2-oxo-ethoxy]-1-phenyl-1H-pyrazole-3-carbonyl}-amino)-5-hydroxy-pentanoyl]-piperazine-1-carboxylic acid butyl ester] | 70 nM |  | 17 nM |
| CCOC(=O)N1CCN(C(=O)[C@H](CCC(=O)O)NC(=O)c2cc(O[C@H](C)C(=O)N3CCC[C@H]3C(=O)NCC(F)(F)F)n(-c3ccccc3)n2)CC1 [Example 65, 4-[(S)-4-Carboxy-2-({5-[(R)-2-((S)-2-(2,2,2-trifluoroethylcarbamoyl)-pyrrolidin-1-yl)-1-methyl-2-oxo-ethoxy]-1-phenyl-1H-pyrazole-3-carbonyl}-amino)-butyryl]-piperazine-1-carboxylic acid ethyl ester] | 120 nM |  | 55 nM |
| CCCCOC(=O)N1CCN(C(=O)CNC(=O)c2cc(O[C@H](C)C(=O)N3CCC[C@H]3C(=O)NC3CCC3)n(-c3ccccc3)n2)CC1 [Example 269, 4-[2-({5-[(R)-2-((S)-2-Cyclobutylcarbamoyl-pyrrolidin-1-yl)-1-methyl-2-oxo-ethoxy]-1-phenyl-1H-pyrazole-3-carbonyl}-amino)-acetyl]-piperazine-1-carboxylic acid butyl ester] | 50 nM |  | 3 nM |
| CCOC(=O)N1CCN(C(=O)[C@H](CCC(=O)O)NC(=O)c2cc(OCC(=O)N3CCC[C@H]3C(=O)NC(C)C)n(-c3ccccc3)n2)CC1 [Example 10, 4-{(S)-4-Carboxy-2-[(5-{2-[(S)-2-isopropylcarbamoyl-pyrrolidin-1-yl]-2-oxo-ethoxy}-1-phenyl-1H-pyrazole-3-carbonyl)-amino]-butyryl}-piperazine-1-carboxylic acid ethyl ester] | 340 nM |  | 146 nM |
